Test results as given in the NIST ThermoML archive (doi:10.1021/je4007844).

Details: 101.33 kPa, Liquid; for mass density: Vibrating tube method; for viscosity: Concentric cylinders viscometry

CCCCCCn1cc[n+](C)c1.[Cl-] [1-hexyl-3-methylimidazolium chloride]
Details | mass density [kg/m3] | viscosity [mPa·s]
303.15 K | 1035.1 | –
313.15 K | 1029.5 | –
323.15 K | 1023.9 | 1806
333.15 K | 1018.4 | 810.3
343.15 K | 1012.8 | 404.3
353.15 K | 1007.4 | 220.6
363.15 K | 1002.1 | 129.7
373.15 K | 997.1 | 81.34
